# Reference: US20230303542A1, “SOLID FORMS OF A PARP14 INHIBITOR” (Ribon Therapeutics, Inc., priority 2022, published 2023)
# Experiments:
# Format in all cases: physicochemical
# [1] = Preliminary solubility of Compound 1 Form I, visual assessment; conditions: thermodynamic from solid, estimated via visual assessment
# [2] = Solid-state stability study (HPLC purity and XRPD); conditions: 60° C. (closed) and 40° C./75%RH for 14 days
# Experimental: HPLC analysis was performed with an Agilent HPLC 1260 series instrument.
# At day 0, 7 and 14, the sample was dissolved in diluent to prepare solution for HPLC purity analysis. Solid samples were analyzed by XRPD to check the crystal form.
# (closed) and 40° C./75%RH (open) up to 14 days, samples were prepared in duplicate for each condition. […] (closed) and 40° C./75%RH for 14 days.
# [3] = Dynamic solubility of Form II in single solvents, dissolution observed visually; conditions: thermodynamic from solid, 22° C.
# Experimental: An appropriate amount of Form II was weighed into a sample vial and then the indicated solvent was added gradually until all the solid was dissolved at RT. The dissolution was observed visually.
# [4] = Kinetic solubility of Form II, clear temperature point by Crystal 16; conditions: organic solvent or mixture, thermodynamic from solid; at 30° C.; volume ratio of MeOH-water/MTBE 9/1/30
# [5] = Dynamic solubility of Form II in mixed solvents, dissolution observed visually; conditions: thermodynamic from solid
# Excerpt: The solubility data was used to control supersaturation and calculate theoretical yield of the crystallization process.
# [6] = organic solvent or mixture, 2-Me-THF
# [7] = organic solvent or mixture, Acetone
# [8] = organic solvent or mixture, Ethanol (EtOH)
# [9] = organic solvent or mixture, Ethyl acetate (EA)
# [10] = organic solvent or mixture, Methanol (MeOH)
# [11] = organic solvent or mixture, Methyl ethyl ketone (MEK)
smiles,measurement,setting,value
"CC(=O)N1CCC(COc2cc(F)c3c(=O)[nH]c(CSC4CCOCC4)nc3c2)CC1 [Form I, 7-((1-acetylpiperidin-4-yl)methoxy)-5-fluoro-2-(((tetrahydro-2H-pyran-4-yl)thio)methyl)quinazolin-4(3H)-one]",solubility,[1]; [6],10000 µg/mL
same,solubility,"[1]; organic solvent or mixture, ACN",< 600 µg/mL
same,solubility,[1]; [7],1000 µg/mL
same,solubility,"[1]; organic solvent or mixture, DCM",6300 µg/mL
same,solubility,"[1]; organic solvent or mixture, DMSO",16700 µg/mL
same,solubility,[1]; [8],3300 µg/mL
same,solubility,[1]; [9],2500 µg/mL
same,solubility,"[1]; organic solvent or mixture, Heptane",< 600 µg/mL
same,solubility,"[1]; organic solvent or mixture, Isopropyl acetate (IPAC)",1300 µg/mL
same,solubility,"[1]; organic solvent or mixture, Isopropyl alcohol (IPA)",< 600 µg/mL
same,solubility,[1]; [10],10000 µg/mL
same,solubility,[1]; [11],10000 µg/mL
same,solubility,"[1]; organic solvent or mixture, Methyl tert-butyl ether (MTBE)",< 600 µg/mL
same,solubility,"[1]; organic solvent or mixture, THF",4200 µg/mL
same,solubility,"[1]; organic solvent or mixture, Toluene",< 600 µg/mL
same,solubility,[1]; Water,< 600 µg/mL
"CC(=O)N1CCC(COc2cc(F)c3c(=O)[nH]c(CSC4CCOCC4)nc3c2)CC1 [Form II, 7-((1-acetylpiperidin-4-yl)methoxy)-5-fluoro-2-(((tetrahydro-2H-pyran-4-yl)thio)methyl)quinazolin-4(3H)-one]",Physical and chemical stability,[2],both physically and chemically stable
same,solubility,[3]; [6],700 µg/mL
same,solubility,"[3]; organic solvent or mixture, 2-Propanol (IPA)",< 600 µg/mL
same,solubility,"[3]; organic solvent or mixture, Acetic acid",> 167000 µg/mL
same,solubility,[3]; [7],800 µg/mL
same,solubility,"[3]; organic solvent or mixture, Acetonitrile (ACN)",600 µg/mL
same,solubility,"[3]; organic solvent or mixture, Dichloromethane (DCM)",16700 µg/mL
same,solubility,"[3]; organic solvent or mixture, Dimethyl sulfoxide (DMSO)",12500 µg/mL
same,solubility,[3]; [8],1000 µg/mL
same,solubility,[3]; [9],< 600 µg/mL
same,solubility,"[3]; organic solvent or mixture, Isopropyl acetate (IPAc)",< 600 µg/mL
same,solubility,[3]; [10],8300 µg/mL
same,solubility,[3]; [11],1700 µg/mL
same,solubility,"[3]; organic solvent or mixture, Tert-Butyl methyl ether (MTBE)",< 600 µg/mL
same,solubility,"[3]; organic solvent or mixture, Tetrahydrofuran (THF)",4200 µg/mL
same,solubility,"[3]; organic solvent or mixture, Toluene (Tol)",< 600 µg/mL
same,solubility,"[3]; organic solvent or mixture, n-Heptane (Hept)",< 600 µg/mL
same,solubility,[3]; Water,< 600 µg/mL
same,solubility at 30 min,[4],6500 µg/mL
same,solubility,"[5]; MeOH/Anisole (1/2), organic solvent or mixture, MeOH/Anisole (½), 25° C.",~150000 µg/mL
same,solubility,"[5]; MeOH/Anisole (1/2), organic solvent or mixture, MeOH/Anisole (½), 40° C.",> 200000 µg/mL
same,solubility,"[5]; organic solvent or mixture, Anisole, 25° C.",< 1000 µg/mL
same,solubility,"[5]; organic solvent or mixture, MeOH/Anisole (1/1), 25° C.",163000 to 176000 µg/mL
same,solubility,"[5]; organic solvent or mixture, MeOH/Anisole (1/1), 40° C.",~250000 µg/mL
same,solubility,"[5]; organic solvent or mixture, MeOH/Anisole (2/1), 25° C.",96000 to 106000 µg/mL
same,solubility at 30 min,"[5]; organic solvent or mixture, MeOH/Anisole, volume ratio 1/1, RT, read-out: Solubility",150000 to 160000 µg/mL
same,solubility,"[5]; organic solvent or mixture, MeOH/Anisole/Hept (1/1/6), 25° C.",< 5000 µg/mL
same,solubility,"[5]; organic solvent or mixture, MeOH/Anisole/Hept (1/2/3), 25° C.",> 10000 µg/mL
same,solubility,"[5]; organic solvent or mixture, MeOH/Anisole/Hept (1/2/6), 25° C.",~5000 µg/mL
same,solubility,"[5]; organic solvent or mixture, MeOH/Anisole/MTBE (1/2/6), 25° C.",~3000 µg/mL
same,solubility at 30 min,"[5]; organic solvent or mixture, MeOH/MEK, volume ratio 1/1, RT, read-out: Solubility",20000 to 30000 µg/mL
same,solubility,"[5]; organic solvent or mixture, MeOH/water (7/3), 60° C.",~125000 µg/mL
same,solubility at 30 min,"[5]; organic solvent or mixture, MeOH/water (7/3), RT, read-out: Dynamic solubility",10000 to 13000 µg/mL
same,solubility,"[5]; organic solvent or mixture, MeOH/water (8/2), 50° C.",50000 to 100000 µg/mL
same,solubility,"[5]; organic solvent or mixture, MeOH/water (8/2), 60° C.",> 125000 µg/mL
same,solubility at 30 min,"[5]; organic solvent or mixture, MeOH/water (8/2), RT, read-out: Dynamic solubility",13000 to 17000 µg/mL
same,solubility,"[5]; organic solvent or mixture, MeOH/water (9/1), 0° C.",6000 to 10000 µg/mL
same,solubility,"[5]; organic solvent or mixture, MeOH/water (9/1), 60° C.",> 125000 µg/mL
same,solubility at 30 min,"[5]; organic solvent or mixture, MeOH/water (9/1), RT (Table of MeOH/Water), read-out: Dynamic solubility",10000 to 13000 µg/mL
same,solubility at 30 min,"[5]; organic solvent or mixture, MeOH/water, volume ratio 9/1, RT (Table of mixed solvents at RT), read-out: Solubility",35000 to 43000 µg/mL
same,solubility,"[5]; organic solvent or mixture, MeOH/water/MTBE (9/1/10), 0° C.",> 4500 µg/mL
same,solubility,"[5]; organic solvent or mixture, MeOH/water/MTBE (9/1/20), 0° C.",~3000 µg/mL
same,solubility,"[5]; organic solvent or mixture, MeOH, 25° C.",8300 µg/mL
same,solubility,"[5]; organic solvent or mixture, MeOH, 50° C.",29000 to 33000 µg/mL
same,solubility,"[5]; organic solvent or mixture, MeOH, 60° C.",71000 to 83000 µg/mL
same,solubility at 30 min,"[5]; organic solvent or mixture, MeOH, RT, read-out: Dynamic solubility",8300 µg/mL
same,solubility at 30 min,"[5]; volume ratio 1/2, organic solvent or mixture, Ethyl formate/Acetone, volume ratio ½, RT, read-out: Solubility",< 2000 µg/mL
same,solubility at 30 min,"[5]; volume ratio 1/2, organic solvent or mixture, Ethyl formate/EA, volume ratio ½, RT, read-out: Solubility",< 1000 µg/mL
same,solubility at 30 min,"[5]; volume ratio 1/2, organic solvent or mixture, Ethyl formate/IPA, volume ratio ½, RT, read-out: Solubility",< 2000 µg/mL
same,solubility at 30 min,"[5]; volume ratio 1/2, organic solvent or mixture, Ethyl formate/IPAC, volume ratio ½, RT, read-out: Solubility",< 1000 µg/mL
same,solubility at 30 min,"[5]; volume ratio 1/2, organic solvent or mixture, Ethyl formate/MEK, volume ratio ½, RT, read-out: Solubility",< 2000 µg/mL
same,solubility at 30 min,"[5]; volume ratio 1/2, organic solvent or mixture, Ethyl formate/MTBE, volume ratio ½, RT, read-out: Solubility",< 2000 µg/mL
same,solubility at 30 min,"[5]; volume ratio 1/2, organic solvent or mixture, Ethyl formate/diethyl ether, volume ratio ½, RT, read-out: Solubility",7000 to 8000 µg/mL
same,solubility at 30 min,"[5]; volume ratio 1/2, organic solvent or mixture, Ethyl formate/n-BuOH, volume ratio ½, RT, read-out: Solubility",3000 to 4000 µg/mL
same,solubility at 30 min,"[5]; volume ratio 1/2, organic solvent or mixture, MEK/EA, volume ratio ½, RT, read-out: Solubility",< 1000 µg/mL
same,solubility at 30 min,"[5]; volume ratio 1/2, organic solvent or mixture, MEK/Ethyl formate, volume ratio ½, RT, read-out: Solubility",< 1000 µg/mL
same,solubility at 30 min,"[5]; volume ratio 1/2, organic solvent or mixture, MEK/IPA, volume ratio ½, RT, read-out: Solubility",< 1000 µg/mL
same,solubility at 30 min,"[5]; volume ratio 1/2, organic solvent or mixture, MEK/IPAC, volume ratio ½, RT, read-out: Solubility",< 1000 µg/mL
same,solubility at 30 min,"[5]; volume ratio 1/2, organic solvent or mixture, MEK/diethyl ether, volume ratio ½, RT, read-out: Solubility",< 1000 µg/mL
same,solubility at 30 min,"[5]; volume ratio 1/2, organic solvent or mixture, MEK/n-BuOH, volume ratio ½, RT, read-out: Solubility",< 1000 µg/mL
same,solubility at 30 min,"[5]; volume ratio 1/2, organic solvent or mixture, MeOH/Acetone, volume ratio ½, RT, read-out: Solubility",< 14000 µg/mL
same,solubility at 30 min,"[5]; volume ratio 1/2, organic solvent or mixture, MeOH/Diethyl ether, volume ratio ½, RT, read-out: Solubility",< 2000 µg/mL
same,solubility at 30 min,"[5]; volume ratio 1/2, organic solvent or mixture, MeOH/EA, volume ratio ½, RT, read-out: Solubility",< 10000 µg/mL
same,solubility at 30 min,"[5]; volume ratio 1/2, organic solvent or mixture, MeOH/Ethyl formate, volume ratio ½, RT, read-out: Solubility",< 25000 µg/mL
same,solubility at 30 min,"[5]; volume ratio 1/2, organic solvent or mixture, MeOH/MEK, volume ratio ½, RT, read-out: Solubility",24000 to 30000 µg/mL
same,solubility at 30 min,"[5]; volume ratio 1/2, organic solvent or mixture, MeOH/n-BuOH, volume ratio ½, RT, read-out: Solubility",< 3000 µg/mL
same,solubility at 30 min,"[5]; volume ratio 1/9, organic solvent or mixture, MeOH/Ethyl formate, volume ratio ⅑, RT, read-out: Solubility",< 1000 µg/mL
same,solubility at 30 min,"[5]; volume ratio 1/9, organic solvent or mixture, MeOH/MEK, volume ratio ⅑, RT, read-out: Solubility",7000 to 8000 µg/mL
